Common to all, as to type: functional
Assay [1] concerns L1210. The assay can be described thus: Antitumor activity was assessed against L1210 tumors in B6D2F1 mouse by inoculation of 10e5 tumor cells through intravenous route and mean death of animals (treated/control) was reported at 100 mg/kg peroral dose. The conditions noted are these: route oral.
For assay [2], the system named is L1210. Kind of assay: Antitumor activity was assessed against L1210 tumors in B6D2F1 mouse by inoculation of 10e5 tumor cells through intravenous route and mean death of animals (treated/control) was reported at 200 mg/kg peroral dose. As to conditions: route oral.
The subject of assay [3] is L1210. The assay can be described thus: Antitumor activity was assessed against L1210 tumors in B6D2F1 mouse by inoculation of 10e5 tumor cells through intravenous route and mean death of animals (treated/control) was reported at 50 mg/kg peroral dose. The conditions noted are these: route oral.
Assay [4] is described as follows: Antitumor activity was assessed against TLX5 tumors in CBA/CA mouse by inoculation of 2 x 10e5 tumor cells through subcutaneous route and mean death of animals (treated/control) was reported at 10 mg/kg ip dose.
Assay [5] in a line: Antitumor activity was assessed against TLX5 tumors in CBA/CA mouse by inoculation of 2 x 10e5 tumor cells through subcutaneous route and mean death of animals (treated/control) was reported at 160 mg/kg dose.
Assay [6] is described as follows: Antitumor activity was assessed against TLX5 tumors in CBA/CA mouse by inoculation of 2 x 10e5 tumor cells through subcutaneous route and mean death of animals (treated/control) was reported at 20 mg/kg ip dose.
Assay [7] is described as follows: Antitumor activity was assessed against TLX5 tumors in CBA/CA mouse by inoculation of 2 x 10e5 tumor cells through subcutaneous route and mean death of animals (treated/control) was reported at 40 mg/kg dose.
Assay [8] in a line: Antitumor activity was assessed against TLX5 tumors in CBA/CA mouse by inoculation of 2 x 10e5 tumor cells through subcutaneous route and mean death of animals (treated/control) was reported at 80 mg/kg dose.
The test system of assay [9] is L1210. The assay can be described thus: Antitumor activity was assessed against L1210 tumors in B6D2F1 mouse by inoculation of 10e5 tumor cells through iv route and mean death of animals (treated/control) was reported at 40 mg/kg po dose.
The subject of assay [10] is L1210. Kind of assay: Antitumor activity was assessed against L1210 tumors in B6D2F1 mouse by inoculation of 10e5 tumor cells through iv route and mean death of animals (treated/control) was reported at 80 mg/kg po dose.
Assay [11] concerns L1210. Kind of assay: Antitumor activity was assessed against L1210 tumors in B6D2F1 mouse by inoculation of 10e5 tumor cells through iv route and mean death of animals (treated/control) was reported at 160 mg/kg po dose.
In assay [12] the test system is L1210. Kind of assay: Antitumor activity was assessed against L1210 tumors in B6D2F1 mouse by inoculation of 10e5 tumor cells through iv route and mean death of animals (treated/control) was reported at 50 mg/kg po dose.
For assay [13], the system named is L1210. Kind of assay: Antitumor activity was assessed against L1210 tumors in B6D2F1 mouse by inoculation of 10e5 tumor cells through iv route and mean death of animals (treated/control) was reported at 100 mg/kg po dose.
Assay [14] relates to L1210. The assay can be described thus: Antitumor activity was assessed against L1210 tumors in B6D2F1 mouse by inoculation of 10e5 tumor cells through iv route and mean death of animals (treated/control) was reported at 200 mg/kg po dose.
For assay [15], the system named is L1210. The assay can be described thus: Antitumor activity was assessed against L1210 tumors in B6D2F1 mouse by inoculation of 10e5 tumor cells through iv route and number of Survivors to duration was reported at 40 mg/kg po dose; 7/7.
Assay [16] deals with L1210. The assay can be described thus: Antitumor activity was assessed against L1210 tumors in B6D2F1 mouse by inoculation of 10e5 tumor cells through iv route and mean death of animals (treated/control) was reported at 20 mg/kg po dose.
For assay [17], the system named is L1210. The assay can be described thus: Antitumor activity was assessed against L1210 tumors in B6D2F1 mouse by inoculation of 10e5 tumor cells through iv route and mean death of animals (treated/control) was reported at 10 mg/kg po dose.
Assay [18] can be described thus: Antitumor activity was assessed against TLX5 tumors in CBA/CA mouse by inoculation of 2 x 10e5 tumor cells through sc route and mean death of animals (treated/control) was reported at 20 mg/kg dose. As to conditions: route subcutaneous.
Assay [19] is described as follows: Antitumor activity was assessed against TLX5 tumors in CBA/CA mouse by inoculation of 2 x 10e5 tumor cells through sc route and mean death of animals (treated/control) was reported at 40 mg/kg dose. As to conditions: route subcutaneous.
Assay [20] is described as follows: Antitumor activity was assessed against TLX5 tumors in CBA/CA mouse by inoculation of 2 x 10e5 tumor cells through sc route and mean death of animals (treated/control) was reported at 80 mg/kg dose. The conditions noted are these: route subcutaneous.
The nature of assay [21]: Antitumor activity was assessed against TLX5 tumors in CBA/CA mouse by inoculation of 2 x 10e5 tumor cells through sc route and number of survivors was reported at 20 mg/kg ip dose; 3/5. The conditions noted are these: route subcutaneous.
The nature of assay [22]: Antitumor activity was assessed against TLX5 tumors in CBA/CA mouse by inoculation of 2 x 10e5 tumor cells through sc route and number of survivors was reported at 40 mg/kg ip dose; 3/5. As to conditions: route subcutaneous.
Assay [23] in a line: Antitumor activity was assessed against TLX5 tumors in CBA/CA mouse by inoculation of 2 x 10e5 tumor cells through sc route and mean death of animals (treated/control) was reported at 160 mg/kg dose. The conditions noted are these: route subcutaneous.
Assay [24] is described as follows: Antitumor activity was assessed against TLX5 tumors in CBA/CA mouse by inoculation of 2 x 10e5 tumor cells through sc route and mean death of animals (treated/control) was reported at 320 mg/kg dose. The conditions noted are these: route subcutaneous.

Where only a bound is given, the exact number is not on record here.

Consider `O=c1n(CCCl)nnc2c(-c3ccccc3)ncn12`, for which the T/C in the assay on L1210 [1], in the assay with L1210 [2] and with L1210 [3] was 100% each time.
Consider `NC(=O)c1nc(C2CCCCC2)n2c(=O)n(CCCl)nnc12`, for which the results for the T/C in the assay with L1210 [1], in the assay with L1210 [2] and with L1210 [3] were 86%, 90% and 94%, respectively.
In the case of `N#Cc1ncn2c(=O)n(CCCl)nnc12`, the T/C in [4] came to 96%; in [5] it was 80%; in [6], 102%; in assay [7], 102%; in assay [8] it was 104%.
For the molecule `CCCCc1nc(C(N)=O)c2nnn(CCCl)c(=O)n12`, the T/C is given as 100% in the assay with L1210 [9], 113% in the assay on L1210 [10] and 147% with L1210 [11].
Turning to `O=c1n(CCCl)nnc2c([N+](=O)[O-])ncn12`, the T/C with L1210 [1], in the assay on L1210 [2] and in the assay with L1210 [3] was 98% each time.
Regarding `CC(C)c1nc(C(N)=O)c2nnn(CCCl)c(=O)n12`, the T/C in the assay with L1210 [12] is on record as 100%; in the assay with L1210 [13], 104%; in the assay with L1210 [14], 137%.
With `CN(C)S(=O)(=O)c1ncn2c(=O)n(CCCl)nnc12`, the results for the Survivors (in the assay on L1210 [15]; in assay [21]; in assay [22]) were 7, 3 and 3, respectively. In addition, the T/C in the assay with L1210 [16] is 222%; in the assay on L1210 [9] it was over 750%; in the assay with L1210 [17] it was 152%; in assay [18], over 385%; in [19], over 381%; in assay [20], 68%.
On to `O=c1n(CCCl)nnc2c([N+](=O)[O-])cnn12`, for which the figures for the T/C in the assay on L1210 [1], in the assay on L1210 [2] and in the assay with L1210 [3] were 100%, 101% and 101%, respectively.
Take `CCc1nc(C(N)=O)c2nnn(CCCl)c(=O)n12`: the T/C with L1210 [16] was 145%; with L1210 [9], 212%; with L1210 [17], 105%.
Take `COc1ccc(CNS(=O)(=O)c2ncn3c(=O)n(CCCl)nnc23)cc1`: the T/C in [23] amounted to 123%; in assay [18] it was 113%; in [24], 109%; in [20] it was 151%.
As for `NC(=O)c1nc(Cc2ccccc2)n2c(=O)n(CCCl)nnc12`, the T/C with L1210 [1] is 114%; in the assay with L1210 [2] it was 127%; with L1210 [3], 105%.
For `CN(C(=O)c1ncn2c(=O)n(CCCl)nnc12)c1ccccc1`, in that order: 100%, 100% and 100%.

For orientation: T/C means the ratio of treated to control.

These data come from ChEMBL document CHEMBL1123898, “Antitumor imidazotetrazines. 14. Synthesis and antitumor activity of 6- and 8-substituted imidazo[5,1-d]-1,2,3,5-tetrazinones and 8-substituted pyrazolo[5,1-d]-1,2,3,5-tetrazinones” (1987).
